For series [1], the system named is Staphylococcus aureus. As to the kind of experiment: Antimicrobial activity against MLSB-resistant Staphylococcus aureus incubated for 18 hrs by serial microdilution method. Format: functional. On the technique in general: Dilution methods test growth across graded concentrations, often in twofold steps.
Series [2] deals with Staphylococcus aureus. Nature of the series: Antimicrobial activity against methicillin-resistant Staphylococcus aureus incubated for 18 hrs by serial microdilution method. Format: functional.
For series [3], the system named is Staphylococcus aureus. As to the kind of experiment: Antimicrobial activity against Staphylococcus aureus ATCC 6538 incubated for 18 hrs by serial microdilution method. Format: functional. The conditions noted are these: ATCC 6538, 18 h.
Series [4] relates to Enterococcus faecalis. Nature of the series: Antimicrobial activity against Enterococcus faecalis ATCC 29212 incubated for 18 hrs by serial microdilution method. Format: functional. The conditions noted are these: ATCC 29212, 18 h.
Series [5] can be described thus: Lipophilicity, log P of the compound in octanol and water incubated for 1 h under shaking condition. It counts as physicochemical.
Series [6] in a line: Solubility of the compound in water at pH 7 by UV-vis spectrophotometric analysis. It counts as physicochemical.
The test system of series [7] is Staphylococcus epidermidis. As to the kind of experiment: Antimicrobial activity against Staphylococcus epidermidis ATCC 12228 incubated for 18 hrs by serial microdilution method. It counts as functional. The conditions noted are these: ATCC 12228, 18 h.
The test system of series [8] is Staphylococcus epidermidis. As to the kind of experiment: Antimicrobial activity against Staphylococcus epidermidis ATCC 49134 incubated for 18 hrs by serial microdilution method. Particulars: ATCC 49134, 18 h. It counts as functional.
Series [9] has as its system Escherichia coli. As to the kind of experiment: Antimicrobial activity against Escherichia coli ATCC 25922 incubated for 18 hrs by serial microdilution method. It counts as functional. The conditions noted are these: ATCC 25922, 18 h.

Values after ≈ are worked out from the molar mass of the structure shown. Where only a bound is given, the exact number is not on record here.

One may read the MIC as the lowest concentration found to suppress growth. In general, logP refers to a log measure of how a compound divides between an organic and an aqueous phase. A higher logP goes with a more lipophilic compound. For orientation: solubility means how much of the substance goes into solution per volume.

As to `CO[C@H]1/C=C/O[C@@]2(C)Oc3c(C)c(O)c4c(O)c(c(CN5CCN(c6ccccn6)CC5)c(O)c4c3C2=O)NC(=O)/C(C)=C\C=C\[C@H](C)[C@H](O)[C@@H](C)[C@@H](O)[C@@H](C)[C@H](OC(C)=O)[C@@H]1C`, the MIC in series [1] was 0.5 µg/mL (≈ 0.573 µM); in series [2], 1 µg/mL (≈ 1.15 µM); in series [3], 2 µg/mL (≈ 2.29 µM); in [4], more than 8 µg/mL; in series [7], 0.25 µg/mL (≈ 0.286 µM); in series [8], 0.25 µg/mL (≈ 0.286 µM). In series [9], this molecule gave an MIC of more than 8 µg/mL. Besides, the logP at 1 h in [5] turned out to be 1.99. The same molecule had a solubility in series [6] of less than 50 µg/mL.
For `CO[C@H]1/C=C/O[C@@]2(C)Oc3c(C)c(O)c4c(O)c(c(/C=N/NCc5ccccc5)c(O)c4c3C2=O)NC(=O)/C(C)=C\C=C\[C@H](C)[C@H](O)[C@@H](C)[C@@H](O)[C@@H](C)[C@H](OC(C)=O)[C@@H]1C`, the minimal inhibitory concentration (MIC) was 0.5 µg/mL (≈ 0.602 µM) in [1]; 1 µg/mL (≈ 1.2 µM) in series [2]; 0.5 µg/mL (≈ 0.602 µM) in series [3]; more than 8 µg/mL in series [4]; 0.25 µg/mL (≈ 0.301 µM) in series [7]; 0.25 µg/mL (≈ 0.301 µM) in series [8]. This molecule also yielded an MIC in series [9] of more than 8 µg/mL. Further, the lipophilicity (logP) at 1 h in series [5] came to 2.34. Besides, in [6], the solubility is less than 50 µg/mL.
Turning to `CO[C@H]1/C=C/O[C@@]2(C)Oc3c(C)c(O)c4c(O)c(c(CN5CCN(c6ncccc6C(F)(F)F)CC5)c(O)c4c3C2=O)NC(=O)/C(C)=C\C=C\[C@H](C)[C@H](O)[C@@H](C)[C@@H](O)[C@@H](C)[C@H](OC(C)=O)[C@@H]1C`, the MIC in [1] is 2 µg/mL (≈ 2.13 µM); in series [2] it was 4 µg/mL (≈ 4.25 µM); in [3] it was 2 µg/mL (≈ 2.13 µM); in series [4], more than 8 µg/mL; in series [7] it was 0.5 µg/mL (≈ 0.531 µM); in series [8], 0.5 µg/mL (≈ 0.531 µM). In [9], this molecule displayed an MIC of more than 8 µg/mL. This molecule displayed a logP at 1 h in series [5] of 2.09. The molecule further registered a solubility in series [6] of less than 50 µg/mL.
On to `CO[C@H]1/C=C/O[C@@]2(C)Oc3c(C)c(O)c4c(O)c(c(CN5CCC(NS(C)(=O)=O)CC5)c(O)c4c3C2=O)NC(=O)/C(C)=C\C=C\[C@H](C)[C@H](O)[C@@H](C)[C@@H](O)[C@@H](C)[C@H](OC(C)=O)[C@@H]1C`, for which the MIC in series [1] was 2 µg/mL (≈ 2.25 µM); in series [2] it was 2 µg/mL (≈ 2.25 µM); in series [3] it was 4 µg/mL (≈ 4.5 µM); in [4], more than 8 µg/mL; in series [7], 0.5 µg/mL (≈ 0.563 µM); in [8] it was 0.5 µg/mL (≈ 0.563 µM). The MIC in series [9] was more than 8 µg/mL. Moreover, the log partition coefficient (logP) at 1 h in [5] was determined as 0.31. Moreover, the solubility in series [6] is 36400 µg/mL (≈ 41000 µM).
In the case of `CO[C@H]1/C=C/O[C@@]2(C)Oc3c(C)c(O)c4c(O)c(c(CNC5CCCC(C(N)=O)C5)c(O)c4c3C2=O)NC(=O)/C(C)=C\C=C\[C@H](C)[C@H](O)[C@@H](C)[C@@H](O)[C@@H](C)[C@H](OC(C)=O)[C@@H]1C` (some centres not stated), the minimal inhibitory concentration (MIC) was 0.25 µg/mL (≈ 0.293 µM) in series [1]; 0.5 µg/mL (≈ 0.587 µM) in series [2]; 0.5 µg/mL (≈ 0.587 µM) in series [3]; more than 8 µg/mL in series [4]; 0.25 µg/mL (≈ 0.293 µM) in [7]; 0.25 µg/mL (≈ 0.293 µM) in [8]. The molecule also showed a minimum inhibitory concentration (MIC) in [9] of more than 8 µg/mL. The logP at 1 h in series [5] is 1.33. This molecule showed a solubility in [6] of 150 µg/mL (≈ 176 µM).
Turning to `CO[C@H]1/C=C/O[C@@]2(C)Oc3c(C)c(O)c4c(O)c(c(/C=N/N5CCCCCC5)c(O)c4c3C2=O)NC(=O)/C(C)=C\C=C\[C@H](C)[C@H](O)[C@@H](C)[C@@H](O)[C@@H](C)[C@H](OC(C)=O)[C@@H]1C`, the MIC in [1] came to 0.5 µg/mL (≈ 0.608 µM); in series [2] it was 0.0625 µg/mL (≈ 0.076 µM); in series [3] it was 0.0625 µg/mL (≈ 0.076 µM); in series [4], 0.5 µg/mL (≈ 0.608 µM); in series [7], 0.0312 µg/mL (≈ 0.038 µM); in series [8], 0.0312 µg/mL (≈ 0.038 µM). In addition, the MIC in [9] was more than 8 µg/mL. The molecule also returned a logP at 1 h in [5] of 3.43. In series [6], this molecule registered a solubility of less than 300 µg/mL.
As to `CO[C@H]1/C=C/O[C@@]2(C)Oc3c(C)c(O)c4c(O)c(c(/C=N/NC5CCCCC5)c(O)c4c3C2=O)NC(=O)/C(C)=C\C=C\[C@H](C)[C@H](O)[C@@H](C)[C@@H](O)[C@@H](C)[C@H](OC(C)=O)[C@@H]1C`, the MIC in series [1] is 0.5 µg/mL (≈ 0.608 µM); in series [2], 0.5 µg/mL (≈ 0.608 µM); in [3], 0.5 µg/mL (≈ 0.608 µM); in series [4], 1 µg/mL (≈ 1.22 µM); in series [7], 0.25 µg/mL (≈ 0.304 µM); in series [8] it was 0.25 µg/mL (≈ 0.304 µM). This molecule had a minimal inhibitory concentration (MIC) in series [9] of more than 8 µg/mL. In series [5], the logP at 1 h was 2.1. Also, the solubility in series [6] was less than 50 µg/mL.
As for `CO[C@H]1/C=C/O[C@@]2(C)Oc3c(C)c(O)c4c(O)c(c(/C=N/N5CCN(C)CC5)c(O)c4c3C2=O)NC(=O)/C(C)=C\C=C\[C@H](C)[C@H](O)[C@@H](C)[C@@H](O)[C@@H](C)[C@H](OC(C)=O)[C@@H]1C` [RIFAMPIN], the MIC is 0.0312 µg/mL (≈ 0.038 µM) in series [1]; 0.0156 µg/mL (≈ 0.019 µM) in series [2]; 0.0156 µg/mL (≈ 0.019 µM) in series [3]; 8 µg/mL (≈ 9.72 µM) in [4]; 0.0156 µg/mL (≈ 0.019 µM) in series [7]; 0.0156 µg/mL (≈ 0.019 µM) in series [8]. In series [9], this molecule came in with an MIC of more than 8 µg/mL.
For the molecule `CO[C@H]1/C=C/O[C@@]2(C)Oc3c(C)c(O)c4c(O)c(c(C=O)c(O)c4c3C2=O)NC(=O)/C(C)=C\C=C\[C@H](C)[C@H](O)[C@@H](C)[C@@H](O)[C@@H](C)[C@H](OC(C)=O)[C@@H]1C`, the MIC in series [1] was 2 µg/mL (≈ 2.76 µM); in series [2], 4 µg/mL (≈ 5.51 µM); in series [3] it was 2 µg/mL (≈ 2.76 µM); in series [4] it was more than 8 µg/mL; in series [7], 2 µg/mL (≈ 2.76 µM); in series [8], 2 µg/mL (≈ 2.76 µM). In series [9], this molecule showed an MIC of more than 8 µg/mL.

These data come from ChEMBL document CHEMBL4339185 (Eur J Med Chem, 2019).
